Where a name gives a salt, the structure may show the parent alone. Read-outs that look alike come from different tables or passages of the source.
What was measured:
[1] = Systemic exposure and pharmacokinetics after single oral gavage dose of 200 mg/kg in fasted male SD rats; assay type: in vivo, Sprague Dawley (SD) rats; conditions: for Fold difference in plasma concentration compared to micronized free-base form: 30 hours post-dose; for Increase of systemic drug exposure in AUC0-t compared with micro MBX-2982 (free base): equivalent amounts
Procedure: Two studies were conducted in order to compare the systemic exposure and pharmacokinetics (PK) of microcrystalline MBX-2982 and salt forms of MBX-2982 in fasted male Sprague Dawley (SD) rats following single oral gavage (PO) doses of 200 mg/kg. Four salt foms of MBX-2982 were investigate in the studies. The tested salts were HCl Form I, HCl salt Form II, mesylate salt and the tosylate salt.
Preparation of samples was performed by solvent precipitation of plasma proteins in a 1 mL/well 96-well plate. Standards were prepared by spiking 10 μL of blank plasma with 10 μL of standard solution (acetonitrile containing MBX-2982 at 0.01, 0.02, 0.05, 0.1, 0.2, 0.5, 1, 2, 5, 10, 20, 50 and 100 μg/mL) and 300 μL of 0.1% formic acid in acetonitrile containing 0.2 μg/mL internal standard. Plasma samples were prepared by adding 10 μL of plasma sample, 10 μL of acetonitrile, and 300 μL of 0.2 μg/mL internal standard in 0.1% formic acid in acetonitrile. After addition of the organic solvents, all samples were vortexed briefly and centrifuged at 3600 rpm for 10 minutes. Some of the samples were diluted 1.3 to 2-fold with blank plasma. An aliquot of the supernatant (25 μL) was transfer to a 1 mL/well 96-well plate and mixed with 200 μL water/ACN (50/50, v/v) and injected into the HPLC.
The suspensions for microcrystalline MBX-2982 (free base) and salt forms of MBX-2982 were prepared in 1% carboxymethylcellulose and 2% tween 80 in water (w/w/v).
Five groups of animals were given microcrystalline and salt forms suspension doses of MBX-2982 orally at 200 mg/kg, respectively. Food was withheld the night before dose and returned nine hours after dosing. Blood samples were collected at 0.25, 0.5, 1, 2, 4, 6, 9, 24, 30 and 48 h post dose. MBX-2982 plasma concentration from these samples was analyzed by a non-validated high performance liquid chromatography in conjunction with mass spectrometry (LC-MS/MS) method.
Plasma concentration-time data for individual animals were analyzed using WinNonlin software (Professional, version 5.0.1; Pharsight Corp.). A non-compartmental model (model 200) was used. Peak area ratios of MBX-2982 to internal standard and concentration were fitted to a quadratic equation (Calibration Curve) with 1/x weighting using a quadratic regression program in Analyst version 1.4.2 (Applied Biosystem Inc). The equations were then used to interpolate the concentrations of MBX-2982 in samples from peak area to internal standard ratio.
The following pharmacokinetic parameters were calculated: • 1) Cmax: Maximum (peak) plasma concentration • 2) Tmax: Time at which Cmax occurred • 3) t1/2: Terminal phase half-life • 4) AUC0-t: Area under the concentration-time curve from time 0 to last measurable concentration • 5) AUC0-inf: Area under the concentration-time curve from time 0 extrapolated to infinity

[2] = Moisture sorption of HCl Form I; assay type: physicochemical
Excerpt: A steady ˜0.9 wt % gain was observed between ˜5% and ˜95% RH. A complete desorption occurred upon decreasing relative humidity to ˜5% (˜0.9 wt % loss between ˜95% and ˜5% RH).

[3] = Overnight / elevated RH stress of the crystalline salts; assay type: physicochemical; conditions: overnight / elevated relative humidity stress
[4] = fasted male SD rats, single PO dose 200 mg/kg, mean ± SD

## CCc1cnc(N2CCC(c3nc(COc4ccc(-n5cnnn5)cc4)cs3)CC2)nc1.Cl [HCl Salt Form I, 5-ethyl-2-{4-[4-(4-tetrazol-1-yl-phenoxymethyl)-thiazol-2-yl]-piperidin-1-yl}-pyrimidine hydrochloride]
[1]; 0.5 h post dose, fasted male SD rats, PO 200 mg/kg, mean ± SD, hydrochloride
  Mean plasma concentration of MBX-2982: 9.79 ± 3.73 µg/mL
[1]; 1 h post dose, fasted male SD rats, PO 200 mg/kg, mean ± SD, hydrochloride
  Mean plasma concentration of MBX-2982: 15.5 ± 3.15 µg/mL
[1]; 2 h post dose, fasted male SD rats, PO 200 mg/kg, mean ± SD, hydrochloride
  Mean plasma concentration of MBX-2982: 24.2 ± 3.35 µg/mL
[1]; 4 h post dose, fasted male SD rats, PO 200 mg/kg, mean ± SD, hydrochloride
  Mean plasma concentration of MBX-2982: 31.4 ± 7.10 µg/mL
[1]; 6 h post dose, fasted male SD rats, PO 200 mg/kg, mean ± SD, hydrochloride
  Mean plasma concentration of MBX-2982: 28.1 ± 8.46 µg/mL
[1]; 9 h post dose, fasted male SD rats, PO 200 mg/kg, mean ± SD, hydrochloride
  Mean plasma concentration of MBX-2982: 23.8 ± 6.99 µg/mL
[1]; 24 h post dose, fasted male SD rats, PO 200 mg/kg, mean ± SD, hydrochloride
  Mean plasma concentration of MBX-2982: 7.43 ± 9.63 µg/mL
[1]; 24 h post dose, fasted male SD rats, PO 200 mg/kg, mean ± SD, listed as HCl form I, hydrochloride
  Mean plasma concentration of MBX-2982: 7.3 µg/mL
[1]; male SD rats, PO 200 mg/kg, listed as HCl form I, hydrochloride
  Fold difference in plasma concentration compared to micronized free-base form: 94 fold
[1]; 30 h post dose, fasted male SD rats, PO 200 mg/kg, mean ± SD, hydrochloride
  Mean plasma concentration of MBX-2982: 7.52 ± 12.63 µg/mL
[1]; 48 h post dose, fasted male SD rats, PO 200 mg/kg, mean ± SD, hydrochloride
  Mean plasma concentration of MBX-2982: 1.08 ± 2.31 µg/mL
[1]; male SD rats, PO 200 mg/kg, hydrochloride
  Increase of systemic drug exposure in AUC0-t compared with micro MBX-2982 (free base): 2.4 fold
[1]; male, Sprague-Dawley, rat, plasma, po, 30 h post dose, male SD rats, PO 200 mg/kg, read-out: Plasma level at 30 hours post-dose
  concentration at 30 h: 0.00752 µg/mL
[1]; male, Sprague-Dawley, rat, plasma, po, fasted male SD rats, single PO dose 200 mg/kg, mean ± SD
  half-life: 4.01 ± 1.68 h
[1]; male, Sprague-Dawley, rat, plasma, po, fasted male SD rats, single PO dose 200 mg/kg, mean ± SD, read-out: AUC0-24
  AUC(0-t): 454 ± 98.4 µg·h/mL
[1]; male, Sprague-Dawley, rat, plasma, po, fasted male SD rats, single PO dose 200 mg/kg, mean ± SD, read-out: AUC0-inf
  AUC0-inf: 536 ± 29.9 µg·h/mL
[1]; male, Sprague-Dawley, rat, plasma, po, fasted male SD rats, single PO dose 200 mg/kg, mean ± SD, read-out: AUC0-t
  AUC(0-t): 571 ± 249 µg·h/mL
[1]; male, Sprague-Dawley, rat, plasma, po, fasted male SD rats, single PO dose 200 mg/kg, mean ± SD, read-out: Cmax
  Cmax: 31.2 ± 7.41 µg/mL
[1]; male, Sprague-Dawley, rat, plasma, po, fasted male SD rats, single PO dose 200 mg/kg, mean ± SD, read-out: Tmax
  Tmax: 7.25 ± 9.25 h
[2]; between ~5% and ~95% RH
  Weight gain on sorption: ~0.9 wt %
[2]; between ~95% and ~5% RH
  Weight loss on desorption: ~0.9 wt %
[2]; equilibration at ~5% RH
  Weight loss upon equilibration: ~0.3 wt %

## CCc1cnc(N2CCC(c3nc(COc4ccc(-n5cnnn5)cc4)cs3)CC2)nc1 [Tosylate Salt, 5-ethyl-2-{4-[4-(4-tetrazol-1-yl-phenoxymethyl)-thiazol-2-yl]-piperidin-1-yl}-pyrimidine]
[1]; 0.5 h post dose, fasted male SD rats, PO 200 mg/kg, mean ± SD
  Mean plasma concentration of MBX-2982: 10.1 ± 2.45 µg/mL
[1]; 1 h post dose, fasted male SD rats, PO 200 mg/kg, mean ± SD
  Mean plasma concentration of MBX-2982: 13.0 ± 3.33 µg/mL
[1]; 2 h post dose, fasted male SD rats, PO 200 mg/kg, mean ± SD
  Mean plasma concentration of MBX-2982: 19.7 ± 2.55 µg/mL
[1]; 4 h post dose, fasted male SD rats, PO 200 mg/kg, mean ± SD
  Mean plasma concentration of MBX-2982: 23.6 ± 6.90 µg/mL
[1]; 6 h post dose, fasted male SD rats, PO 200 mg/kg, mean ± SD
  Mean plasma concentration of MBX-2982: 20.3 ± 11.2 µg/mL
[1]; 9 h post dose, fasted male SD rats, PO 200 mg/kg, mean ± SD
  Mean plasma concentration of MBX-2982: 18.6 ± 10.55 µg/mL
[1]; 24 h post dose, fasted male SD rats, PO 200 mg/kg, mean ± SD
  Mean plasma concentration of MBX-2982: 4.2 ± 5.51 µg/mL
[1]; 24 h post dose, fasted male SD rats, PO 200 mg/kg, mean ± SD, listed as tosylate
  Mean plasma concentration of MBX-2982: 4.2 µg/mL
[1]; male SD rats, PO 200 mg/kg
  Fold difference in plasma concentration compared to micronized free-base form: 40 fold
  Increase of systemic drug exposure in AUC0-t compared with micro MBX-2982 (free base): 1.7 fold
[1]; 30 h post dose, fasted male SD rats, PO 200 mg/kg, mean ± SD
  Mean plasma concentration of MBX-2982: 3.18 ± 5.88 µg/mL
[1]; 30 h post dose, fasted male SD rats, PO 200 mg/kg, mean ± SD, listed as tosylate
  Mean plasma concentration of MBX-2982: 3.18 µg/mL
[1]; 48 h post dose, fasted male SD rats, PO 200 mg/kg, mean ± SD
  Mean plasma concentration of MBX-2982: 0.02 ± 0.01 µg/mL
[1]; [4]
  AUC0-24: 342 ± 117 µg·h/mL
  AUC0-inf: 393 ± 98.1 µg·h/mL
  AUC(0-t): 392 ± 98.2 µg·h/mL
  Cmax: 26.1 ± 7.98 µg/mL
  Tmax: 4.00 ± 1.63 h
  t1/2: 3.20 ± 0.88 h
[3]
  Appearance of the material after RH stress: remained a free flowing powder

From patent US9150567B2, “Substituted tetrazol-1-yl-phenoxymethyl-thiazol-2-yl-piperidinyl-pyrimidine salts” (CYMABAY THERAPEUTICS, INC., priority 2009, dated 2015)
